# In article PMC12064818, “A general assay platform to study protein pharmacology using ligand-dependent structural dynamics” (Nature Communications, 2025):
# Target: T1, FLuc-C-HiBiT (Photinus pyralis, UniProt P08659)
# T1 construct: firefly luciferase with C-terminal HiBiT tag, E. coli expressed
# Experiment: biochemical
# Settings: enzyme activity, 10 uM ATP; read-out: IC50 or SDR50 (mM) / FLuc E
# T1 sequence (P08659 whole entry, looked up): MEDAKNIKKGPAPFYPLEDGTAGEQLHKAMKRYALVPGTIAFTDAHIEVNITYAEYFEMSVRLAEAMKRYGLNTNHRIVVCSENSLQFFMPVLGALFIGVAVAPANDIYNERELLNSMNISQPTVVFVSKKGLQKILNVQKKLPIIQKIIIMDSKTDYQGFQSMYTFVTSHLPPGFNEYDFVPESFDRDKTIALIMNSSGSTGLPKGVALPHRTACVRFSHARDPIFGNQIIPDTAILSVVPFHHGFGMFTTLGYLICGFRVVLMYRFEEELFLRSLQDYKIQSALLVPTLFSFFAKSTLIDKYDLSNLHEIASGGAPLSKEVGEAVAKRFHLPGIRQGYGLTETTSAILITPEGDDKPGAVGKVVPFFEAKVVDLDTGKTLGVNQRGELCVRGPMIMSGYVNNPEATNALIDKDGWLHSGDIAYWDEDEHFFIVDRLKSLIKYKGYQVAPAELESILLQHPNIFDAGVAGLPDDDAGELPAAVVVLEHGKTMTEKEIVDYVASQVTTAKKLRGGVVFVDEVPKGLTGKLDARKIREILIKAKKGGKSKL
row,IC50 [mM],Compound
1,0.00313,COc1ccc(-c2noc(N3CCc4ccccc43)n2)cc1 [NCGC00422328-01]
2,0.00989,COc1ccc(-c2noc(Nc3ccc(C)c(C)c3)n2)cc1 [NCGC00422330-01]
3,0.00157,COc1ccc(-c2noc(Nc3ccc4c(c3)OCCO4)n2)cc1 [NCGC00422336-01]
4,0.00221,COc1ccc(-c2noc(Nc3ccccc3)n2)cc1 [NCGC00422340-01]
5,0.0111,CCc1ccccc1Nc1nc(-c2cccc(OC)c2OC)no1 [NCGC00422354-01]
6,0.00394,COc1cccc(-c2noc(Nc3ccc(OC)c(OC)c3)n2)c1 [NCGC00422366-01]
7,0.00624,COc1cccc(-c2noc(Nc3ccc4c(c3)OCO4)n2)c1 [NCGC00422370-01]
8,0.00157,COc1cccc(-c2noc(Nc3ccc4c(c3)OCCO4)n2)c1 [NCGC00422372-01]
9,0.00785,COc1ccc(Nc2nc(-c3cccc(OC)c3)no2)cc1 [NCGC00422374-01]
10,> 0.03,Cn1ccnc1C(O)c1cc2n(n1)CCN(c1ncnc3[nH]cnc13)C2 (stereo not drawn) [NCGC00422809-01]
11,> 0.03,COc1cccc(-n2cc(CN(C)c3ncncn3)cn2)c1 [NCGC00424283-01]
12,0.00176,c1coc(-c2nc3nccc(-c4ccc5c(c4)OCCCO5)n3n2)c1 [NCGC00424571-01]
13,0.0111,Cc1ccc(NC(=O)N2CCC(CCNC(=O)C3CC3)CC2)cc1 [NCGC00424850-01]
14,0.0124,CCC(=O)NCCC1CCN(C(=O)Nc2ccc(C)cc2)CC1 [NCGC00424867-01]
15,0.0124,CC(=O)NCCC1CCN(C(=O)Nc2ccc(C)cc2)CC1 [NCGC00424871-01]
16,0.00989,O[C@H]1C[C@@H](c2cc(N3CCc4c(Cl)cccc4C3)ncn2)C1 [NCGC00424922-01]
17,0.00442,CN(Cc1cnn(C)c1)C(=O)c1csc2nc(-c3ccc(C(F)(F)F)cc3)cn12 [NCGC00425000-01]
18,> 0.03,O=C(NCCC1CCN(C(=O)Nc2cc(F)cc(F)c2)CC1)c1ccc(F)cc1 [NCGC00425011-01]
19,0.00989,COc1ccc(C(=O)NCCC2CCN(C(=O)Nc3cc(F)cc(F)c3)CC2)cc1 [NCGC00425013-01]
20,0.0111,O=C(NCc1ccoc1)c1ccc2nc(-c3ccc(F)cc3)cn2c1 [NCGC00425034-01]
21,0.0111,Cc1ccc(NC(=O)N2CCC(CCNC(=O)c3ccc(F)cc3)CC2)cc1F [NCGC00425047-01]

row,IC50 [mM],Compound
1,0.0111,Cc1ccc(NC(=O)N2CCC(CCNC(=O)C3CC3)CC2)cc1F [NCGC00425057-01]
2,0.0124,Cc1ccc(NC(=O)N2CCC(CCNC(=O)C3CCC3)CC2)cc1F [NCGC00425059-01]
3,0.0111,CCC(=O)NCCC1CCN(C(=O)Nc2ccc(C)c(F)c2)CC1 [NCGC00425067-01]
4,> 0.03,OCc1cn(CC2CCN(c3ncnc4[nH]cnc34)CC2)nn1 [NCGC00425096-01]
5,0.00279,COc1cccc(-c2noc(-c3ccc(N4CCCC(CO)C4)nc3)n2)c1OC (stereo not drawn) [NCGC00425266-01]
6,0.00989,CN(Cc1nccs1)c1ccc(-c2nc(-c3ccccc3F)no2)cn1 [NCGC00425298-01]
7,0.0111,CC(Cc1cnccn1)Nc1ccc(-c2nc(-c3cccc(Cl)c3)no2)cn1 (stereo not drawn) [NCGC00425352-01]
8,0.00989,CCN1C(=O)CCc2cc(NC(=O)c3ccc(C(C)C)cc3)ccc21 [NCGC00425391-01]
9,0.0111,CCN1C(=O)CCc2cc(NC(=O)c3ccc(OC(F)(F)F)cc3)ccc21 [NCGC00425397-01]
10,> 0.03,Cc1cccc(-c2cccc(NC(=O)C3CCCN(C(=O)CC(F)(F)F)C3)c2)c1 (stereo not drawn) [NCGC00425452-01]
11,0.00313,O=C1CCc2cc(NC(=O)c3n[nH]c4ccccc34)ccc2N1 [NCGC00425473-01]
12,0.0124,CN(Cc1cccnc1)c1ccc(-c2nc(COc3ccccc3)no2)cn1 [NCGC00425502-01]
13,0.00785,CCc1ccc(C(=O)Nc2ccc3c(N4CCOCC4)ncnc3c2)cc1 [NCGC00425539-01]
14,0.00989,CN(C)c1cccc(C(=O)Nc2ccc3c(N4CCOCC4)ncnc3c2)c1 [NCGC00425557-01]
15,0.00989,Cc1c(-c2ccccc2F)[nH]c2ccc(CNC(=O)CC3CCC(=O)N3)cc12 (stereo not drawn) [NCGC00425710-01]
16,0.0157,CC(=O)N1CCCN(c2ccc(-c3nc(-c4ccccc4F)no3)cn2)CC1 [NCGC00426241-01]
17,0.0111,CN(CCc1ccccn1)c1ccc(-c2nc(COc3ccccc3)no2)cn1 [NCGC00426301-01]
18,> 0.03,COc1ccc(OC)c(CN2CCOc3ccc(C(=O)NCc4ccc(C)cc4)cc3C2)c1 [NCGC00426332-01]
19,0.00785,CN(C)C(=O)c1ccc(-c2cccc(-c3ccn(CC4CC4)n3)c2)o1 [NCGC00426335-01]
20,> 0.03,Cc1ccc(CNC(=O)c2ccc3c(c2)CN(Cc2cnn(C)c2C)CCO3)cc1 [NCGC00426362-01]
21,0.0111,Cc1cc(CNC(=O)C2(C(N)=O)CC2)c2[nH]c(-c3ccccc3)c(C)c2c1 [NCGC00426839-01]

row,IC50 [mM],Compound
1,0.0176,COCC1CCN(c2ccc(-c3nc(-c4ccccc4C)no3)cn2)C1 (stereo not drawn) [NCGC00427117-01]
2,0.00989,CC(CCn1cccn1)NC(=O)c1csc2nc(-c3ccc(C(F)(F)F)cc3)cn12 (stereo not drawn) [NCGC00427469-01]
3,0.00989,CC(Cn1cccn1)Nc1ccc(-c2nc(-c3ccccc3F)no2)cn1 (stereo not drawn) [NCGC00427483-01]
4,0.00881,O=C(Nc1cccc(-c2ccc(N3CCCC3)nn2)c1)c1c(F)cccc1F [NCGC00427548-01]
5,0.00881,CN1CCN(c2ccc(-c3cccc(NC(=O)C4CCCCC4)c3)nn2)CC1 [NCGC00427550-01]
6,0.00394,Cc1ccc(C(=O)Nc2cccc(-c3ccc(N4CCN(C)CC4)nn3)c2)cc1C [NCGC00427552-01]
7,0.00989,O=C(NCc1ccco1)Nc1cccc(-c2ccc(N3CCCC3)nn2)c1 [NCGC00427562-01]
8,0.00176,COc1ccc(NC(=O)Nc2cccc(-c3ccc(N4CCOCC4)nn3)c2)cc1 [NCGC00427572-01]
9,0.00394,CCOc1ccccc1NC(=O)Nc1cccc(-c2ccc(N3CCOCC3)nn2)c1 [NCGC00427574-01]
10,0.00197,O=C(Nc1ccc(F)cc1)Nc1cccc(-c2ccc(N3CCOCC3)nn2)c1 [NCGC00427578-01]
11,0.00313,COc1ccccc1NC(=O)Nc1cccc(-c2ccc(N3CCOCC3)nn2)c1 [NCGC00427580-01]
12,0.00248,O=C(Nc1cccc(-c2ccc(N3CCOCC3)nn2)c1)Nc1cc(F)ccc1F [NCGC00427590-01]
13,0.00176,COc1cc(NC(=O)Nc2cccc(-c3ccc(N4CCOCC4)nn3)c2)cc(OC)c1 [NCGC00427592-01]
14,0.00495,O=C(Nc1cccc(-c2ccc(N3CCOCC3)nn2)c1)Nc1cccc(C(F)(F)F)c1 [NCGC00427594-01]
15,0.00279,Cc1ccc(CNC(=O)Nc2cccc(-c3ccc(N4CCOCC4)nn3)c2)cc1 [NCGC00427596-01]
16,0.00279,O=C(Nc1cccc(-c2ccc(N3CCOCC3)nn2)c1)Nc1ccccc1F [NCGC00427598-01]
17,0.00279,COc1cccc(CNC(=O)Nc2cccc(-c3ccc(N4CCOCC4)nn3)c2)c1 [NCGC00427600-01]
18,0.00176,O=C(NCc1ccc(F)cc1)Nc1cccc(-c2ccc(N3CCOCC3)nn2)c1 [NCGC00427604-01]
19,0.00157,CSc1cccc(NC(=O)Nc2cccc(-c3ccc(N4CCOCC4)nn3)c2)c1 [NCGC00427606-01]
20,0.00197,COc1ccc(CNC(=O)Nc2cccc(-c3ccc(N4CCOCC4)nn3)c2)cc1 [NCGC00427608-01]
21,0.00124,COc1ccc(NC(=O)Nc2cccc(-c3ccc(N4CCOCC4)nn3)c2)cc1Cl [NCGC00427610-01]

row,IC50 [mM],Compound
1,0.00279,O=C(Nc1cccc(-c2ccc(N3CCOCC3)nn2)c1)Nc1ccc2c(c1)CCC2 [NCGC00427612-01]
2,0.00624,CCc1cccc(NC(=O)Nc2cccc(-c3ccc(N4CCOCC4)nn3)c2)c1 [NCGC00427616-01]
3,0.00556,O=C(Nc1cccc(-c2ccc(N3CCOCC3)nn2)c1)Nc1cccc(Cl)c1F [NCGC00427620-01]
4,0.000881,COc1ccc(NC(=O)Nc2cccc(-c3ccc(N4CCOCC4)nn3)c2)cc1F [NCGC00427622-01]
5,0.00313,O=C(Nc1cc(F)cc(F)c1)Nc1cccc(-c2ccc(N3CCOCC3)nn2)c1 [NCGC00427624-01]
6,0.000989,COc1ccc(NC(=O)Nc2cccc(-c3ccc(N4CCCCC4)nn3)c2)c(OC)c1 [NCGC00427636-01]
7,0.00111,COc1ccc(C)cc1NC(=O)Nc1cccc(-c2ccc(N3CCCCC3)nn2)c1 [NCGC00427638-01]
8,0.000989,O=C(Nc1cccc(F)c1)Nc1cccc(-c2ccc(N3CCCCC3)nn2)c1 [NCGC00427644-01]
9,0.000495,COc1ccc(CNC(=O)Nc2cccc(-c3ccc(N4CCCCC4)nn3)c2)cc1 [NCGC00427646-01]
10,0.00495,Cc1nnc(CN(C)c2ccc(-c3nc(-c4cccc(Cl)c4)no3)cn2)o1 [NCGC00427683-01]
11,0.014,O=C(c1ccc2oc(-c3cccc(F)c3)nc2c1)N1CCCCC1CCO (stereo not drawn) [NCGC00427691-01]
12,> 0.03,COc1ccc(OCc2cc(C(=O)N3C[C@H]4CC[C@H]3C4)n[nH]2)c(Cl)c1 [NCGC00428264-01]
13,0.0124,O=C1OCCN1CCNc1ccc(-c2nc(-c3ccccc3F)no2)cn1 [NCGC00428584-01]
14,0.000989,Cc1ccccc1-c1noc(-c2ccc(NC(C)c3cnn(C)c3)nc2)n1 (stereo not drawn) [NCGC00428942-01]
15,> 0.03,O=C(Nc1ccccc1)C1CCN(C(=O)N2CC3CC(C2)[C@H]2CCCC(=O)N2C3)CC1 (stereo partly drawn) [NCGC00428953-01]
16,0.00989,Cc1nccn1CCN(C)c1ccc(-c2nc(COc3ccccc3)no2)cn1 [NCGC00428976-01]
17,0.00556,Cc1c(-c2ccccc2F)[nH]c2ccc(CNC(=O)C3CCCN(C(N)=O)C3)cc12 (stereo not drawn) [NCGC00429038-01]
18,0.00313,CN(CCc1cn[nH]c1)c1ccc(-c2nc(-c3ccccc3F)no2)cn1 [NCGC00429241-01]
19,> 0.03,C=CCCC(=O)N1CCOc2c(O)cc(-c3nc4ccccc4s3)cc2C1 [NCGC00429409-01]
20,0.00881,CCC(=O)Nc1ccc2nnc(-c3ccc(C(=O)Nc4ccc5c(c4)OCCO5)cc3)n2c1 [NCGC00429833-01]
21,0.00248,COc1ccc2cc(C3CN(C(=O)c4cccc(CO)c4)CCO3)ccc2c1 (stereo not drawn) [NCGC00430133-01]
